Data set [1] relates to carrageenin edema. Put plainly: Effect on carrageenin edema. Type of data set: in vivo, rat (male, SD strain). Conditions: Rattus norvegicus, po, read-out: Inhibition against Carrageenin edema ED30. The procedure: (Effect on carrageenin edema) One group consisting of 5 male rats of SD strain and of five weeks age was used in the experiment. Compounds to be tested were given orally and, three hours thereafter, 0.1 ml of 0.5% λ-carrageenin was injected at the right hind paw subcutaneously. After three hours, volume of the right hind paw was measured using a plethysmometer, then the volume of the hind paw before the carrageenin injection was deducted from the above measured value to obtain the degree of swelling (in ml), the average swelling inhibition rate of the groups treated with the compounds as compared with the control group was calculated and, using a method of least squares, ED30 was determined.
On the technique in general: Carrageenan injected into the paw causes an acute inflammation.

In data set [2] the test system is acetic acid writhing. Put plainly: Acetic acid Writhing Method. It is filed as in vivo, mouse (male, ddY strain). Conditions: Mus musculus, read-out: Inhibition against Acetic acid writhing ED30. In general terms: In writhing tests, fewer writhes than in controls are read as antinociception.
Data set [3] is described as follows: Acute Toxicity. Conditions: rat, in vivo; rats, p.o.; seven days after oral administration. The procedure: Four male rats (SD strain) of six weeks age were used as a group and the LD50 values seven days after oral administration was calculated by Weil's method.
Data set [4] can be described thus: Action for formation of ulcer. Details: species or system rat (male, SD strain). As to conditions: rat, in vivo, po. On the procedure:
(Action for formation of ulcer)
Male rats (SD strain) of five weeks age were fasted for 24 hours and the test compound (as a suspension in CMC; 0.5% concentration) was given orally at a dose of 1 ml/100 g body weight. After 24 hours, 5% pontamine sky blue (0.5 ml) was injected intravenously and, ten minutes thereafter, the rats were killed by anesthetizing with ether and their stomachs were removed therefrom. […] When at least one ulcer was observed, the ulcer formation was decided to be positive and, according to a Weil's method (four rats per group), UD50 (50% ulcer-forming dose) was determined.

Setting [5] is: rats, p.o., compound 3 h before carrageenin, paw volume after 3 h.
The mark [6] stands for this setting: mice, i.p. (head), 0.6% acetic acid i.p. 3 h after oral compound (method), writhings over 20 min.

Molecules are shown by their SMILES. Read-outs that look alike come from different tables or passages of the source.

For 4 compounds, ED30, LD50 and TD50 results are on record in patent US4581377A, “Fluorene derivatives” (Nippon Shinyaku Co., Ltd., priority 1983, dated 1986).

For the compound `CC(O)C=Cc1ccc2c(c1)Cc1ccccc1-2` (stereo not shown) [Example 2, 4-(2-fluorenyl)-3-buten-2-ol], the ED30 was determined as 28.3 mg/kg in data set [1] (setting [5]) and 1.8 mg/kg in data set [2] (setting [6]). For the same compound, in data set [3], the median lethal dose (LD50) (as a rule, the dose expected to kill half of the subjects tested) at 168 h came out at 1680 mg/kg. The compound further registered a TD50 at 24 h in data set [4] of 90 mg/kg.
Taken in the same sequence, the figures for `CC(=O)CCc1ccc2c(c1)Cc1ccccc1-2` [Example 3, 4-(2-fluorenyl)-butan-2-one] were 12.5 mg/kg, 37.2 mg/kg, more than 2000 mg/kg and 182 mg/kg.
On the same counts, the results for `CC(O)CCc1ccc2c(c1)Cc1ccccc1-2` (stereo not shown) [Example 9, 4-(2-Fluorenyl)-butan-2-ol] are 17.3 mg/kg, 18.4 mg/kg, more than 2000 mg/kg and 68.4 mg/kg.
With `COc1ccc2c(c1)c(CC(=O)O)c(C)n2C(=O)c1ccc(Cl)cc1` [Indomethacin, reference compound], the ED30 in data set [1] (3 h) is 7.1 mg/kg; in data set [2] (po), 2.3 mg/kg. This compound also showed a 50% lethal dose (LD50) at 168 h in data set [3] of 29 mg/kg. For the same compound, the TD50 at 24 h in data set [4] (rats, p.o., 24 h fasted, stomach observed 24 h after dosing, read-out: UD50 (50% ulcer-forming dose)) came to 4 mg/kg.
